Experimental data reported in article PMC12028158, “Synthesis and In Vitro Evaluation of the Anticancer Effect of Novel Phosphonium Vindoline Derivatives” (International Journal of Molecular Sciences, 2025).

Columns and labels:
Type in all cases: cell-based
HCC-2998 = experiment: NCI60 five-dose screen; conditions: Homo sapiens, HCC 2998
CAKI-1 = experiment: NCI60 one-dose screen; conditions: Homo sapiens, CAKI-1, read-out: Growth percent
UO-31 = experiment: NCI60 one-dose screen; conditions: Homo sapiens, UO-31, read-out: Growth percent
OVCAR-3 [1] = experiment: NCI60 one-dose screen; conditions: Homo sapiens, OVCAR-3, read-out: Growth percent
RXF 393 [2] = experiment: NCI60 one-dose screen; conditions: Homo sapiens, RXF 393, read-out: Growth percent
SK-MEL-28 [3] = experiment: NCI60 one-dose screen; conditions: Homo sapiens, SK-MEL-28, read-out: Growth percent
NCI-H23 = experiment: NCI60 one-dose screen; conditions: Homo sapiens, NCI-H23, read-out: Growth percent
LOX IMVI = experiment: NCI60 one-dose screen; conditions: Homo sapiens, read-out: Growth percent
SNB-75 = experiment: NCI60 one-dose screen; conditions: Homo sapiens, SNB-75, read-out: Growth percent
MALME-3M [4] = experiment: NCI60 one-dose screen; conditions: Homo sapiens, Malme-3M, read-out: Growth percent
SK-MEL-2 = experiment: NCI60 one-dose screen; conditions: Homo sapiens, SK-MEL-2, read-out: Growth percent
OVCAR-8 = experiment: NCI60 one-dose screen; conditions: Homo sapiens, OVCAR-8, read-out: Growth percent
SF-539 = experiment: NCI60 five-dose screen; conditions: Homo sapiens, SF-539
OVCAR-3 [5] = experiment: NCI60 five-dose screen; conditions: Homo sapiens, OVCAR-3
UACC-62 = experiment: NCI60 one-dose screen; conditions: Homo sapiens, UACC-62, read-out: Growth percent
A549/ATCC = experiment: NCI60 one-dose screen; conditions: Homo sapiens, A549, read-out: Growth percent
HT29 = experiment: NCI60 one-dose screen; conditions: Homo sapiens, HT-29, read-out: Growth percent
K-562 = experiment: NCI60 five-dose screen; conditions: Homo sapiens, K562
CNS Cancer panel = experiment: NCI60 five-dose screen, panel mean; conditions: Homo sapiens, read-out: GI50 Mean
HOP-62 = experiment: NCI60 one-dose screen; conditions: Homo sapiens, HOP-62, read-out: Growth percent
CCRF-CEM = experiment: NCI60 one-dose screen; conditions: Homo sapiens, read-out: Growth percent
RXF 393 [6] = experiment: NCI60 five-dose screen; conditions: Homo sapiens, RXF 393
HS 578T = experiment: NCI60 five-dose screen; conditions: Homo sapiens, Hs-578T
Breast Cancer panel = experiment: NCI60 five-dose screen, panel mean; conditions: Homo sapiens, read-out: GI50 Mean
SF-268 = experiment: NCI60 five-dose screen; conditions: Homo sapiens, SF-268
BT-549 [7] = experiment: NCI60 five-dose screen; conditions: Homo sapiens, BT-549
HCT-15 [8] = experiment: NCI60 one-dose screen; conditions: Homo sapiens, HCT-15, read-out: Growth percent
HL-60(TB) [9] = experiment: NCI60 one-dose screen; conditions: Homo sapiens, HL-60, read-out: Growth percent
SK-MEL-28 [10] = experiment: NCI60 five-dose screen; conditions: Homo sapiens, SK-MEL-28
MALME-3M [11] = experiment: NCI60 five-dose screen; conditions: Homo sapiens, Malme-3M
HL-60(TB) [12] = experiment: NCI60 five-dose screen; conditions: Homo sapiens, HL-60
BT-549 [13] = experiment: NCI60 one-dose screen; conditions: Homo sapiens, BT-549, read-out: Growth percent
NCI/ADR-RES = experiment: NCI60 five-dose screen; conditions: Homo sapiens
Ovarian Cancer panel = experiment: NCI60 five-dose screen, panel mean; conditions: Homo sapiens, read-out: GI50 Mean
Leukemia panel = experiment: NCI60 five-dose screen, panel mean; conditions: Homo sapiens, read-out: GI50 Mean
RPMI-8226 = experiment: NCI60 five-dose screen; conditions: Homo sapiens, RPMI-8226
Renal Cancer panel = experiment: NCI60 five-dose screen, panel mean; conditions: Homo sapiens, read-out: GI50 Mean
OVCAR-4 = experiment: NCI60 one-dose screen; conditions: Homo sapiens, OVCAR-4, read-out: Growth percent
SK-OV-3 = experiment: NCI60 five-dose screen; conditions: Homo sapiens, SK-OV-3
NCI-H226 = experiment: NCI60 one-dose screen; conditions: Homo sapiens, NCI-H226, read-out: Growth percent
COLO 205 = experiment: NCI60 five-dose screen; conditions: Homo sapiens, COLO 205
NCI-H322M [14] = experiment: NCI60 five-dose screen; conditions: Homo sapiens
SNB-19 = experiment: NCI60 one-dose screen; conditions: Homo sapiens, SNB-19, read-out: Growth percent
HCT-116 = experiment: NCI60 one-dose screen; conditions: Homo sapiens, HCT-116, read-out: Growth percent
NCI-H322M [15] = experiment: NCI60 one-dose screen; conditions: Homo sapiens, read-out: Growth percent
HCT-15 [16] = experiment: NCI60 five-dose screen; conditions: Homo sapiens, HCT-15

CC[C@]12C=CCN3CC[C@@]4(c5ccc(OC)cc5N(C)[C@H]4[C@@](O)(C(=O)OC)[C@@H]1OC(=O)CCCC[P+](c1ccc(OC)cc1)(c1ccc(OC)cc1)c1ccc(OC)cc1)[C@@H]32 [10b] was tested, and the GI50 (HCC-2998) was 617 nM, the activity at 10 µM (CAKI-1) was -78.5% and the activity at 10 µM (UO-31) was 15.5%. The activity at 10 µM (OVCAR-3 [1]) was -71.8%, the activity at 10 µM (RXF 393 [2]) was -90.4% and the activity at 10 µM (SK-MEL-28 [3]) was -96.8%. For the same molecule, the activity at 10 µM (NCI-H23) was -90.7%, the activity at 10 µM (LOX IMVI) was -96.4% and the activity at 10 µM (SNB-75) was -95.4%. For the same molecule, the activity at 10 µM (MALME-3M [4]) was -97.2%, the activity at 10 µM (SK-MEL-2) was -91.4% and the activity at 10 µM (OVCAR-8) was -90.2%. It also gave a GI50 (SF-539) of 1520 nM, a GI50 (OVCAR-3 [5]) of 634 nM and an activity at 10 µM (UACC-62) of -95.2%. For the same molecule, the activity at 10 µM (A549/ATCC) was -83.7%, the activity at 10 µM (HT29) was -63.1% and the GI50 (K-562) was 675 nM. The GI50 (CNS Cancer panel) was 1170 nM, the activity at 10 µM (HOP-62) was -80.8% and the activity at 10 µM (CCRF-CEM) was -59.1%. The GI50 (RXF 393 [6]) was 524 nM, the GI50 (HS 578T) was 1510 nM and the GI50 (Breast Cancer panel) was 700 nM. For the same molecule, the GI50 (SF-268) was 1470 nM, the GI50 (BT-549 [7]) was 1250 nM and the activity at 10 µM (HCT-15 [8]) was -5.69%. The activity at 10 µM (HL-60(TB) [9]) was -45.2%, the GI50 (SK-MEL-28 [10]) was 486 nM and the GI50 (MALME-3M [11]) was 1130 nM. For the same molecule, the GI50 (HL-60(TB) [12]) was 234 nM, the activity at 10 µM (BT-549 [13]) was -96.7% and the GI50 (NCI/ADR-RES) was 20500 nM. The GI50 (Ovarian Cancer panel) was 4110 nM, the GI50 (Leukemia panel) was 560 nM and the GI50 (RPMI-8226) was 299 nM. It also gave a GI50 (Renal Cancer panel) of 4340 nM, an activity at 10 µM (OVCAR-4) of -37.7% and a GI50 (SK-OV-3) of 1400 nM. It also gave an activity at 10 µM (NCI-H226) of -63.6%, a GI50 (COLO 205) of 214 nM and a GI50 (NCI-H322M [14]) of 2790 nM. It also gave an activity at 10 µM (SNB-19) of -95.7%, an activity at 10 µM (HCT-116) of -94.9% and an activity at 10 µM (NCI-H322M [15]) of -89.7%. The GI50 (HCT-15 [16]) was 8790 nM.
